According to patent US20190358199A1 (priority 2010, published 2019):

How the values were obtained:
[1] = Six-week double-blind placebo-controlled Phase 2 study, safety and tolerability; format: in vivo, human
Description: Subjects were evaluated for safety parameters prior to and throughout the trial by a variety of measures including electrocardiogram, physical examination, vital signs and body weight, and clinical laboratory testing including a lipid panel, CBC with differential and urinalysis, Samples were drawn to assess total bilirubin, alkaline phosphatase, ALT (SGPT), AST (SGOT), blood urea nitrogen (BUN), creatinine, glucose, uric acid, calcium, phosphorus, total protein, albumin, total cholesterol, LDL, HDL, triglycerides, sodium, potassium, bicarbonate, chloride, GGT and creatine kinase, Hepatitis B, C and HIV serologies, TSH, drug screen and serum pregnancy test for females.
(§1) • Visits and evaluations were performed according to the following schedule of events: • Visit 1: Screening Visit: • The following was obtained/performed at the Screening Visit (Visit 1): • Written informed consent • Medical history including: • Relevant demographic information • Detailed medical and surgical history, including review of systems • Whenever possible, the patient's medical history was confirmed by medical records. • Prior medication: Medication taken by the patients 30 days prior to the Screening Visit was recorded. • AE assessment • Height (cm) • Weight (kg); BMI was determined and was ≤35 for the patient to be randomized • Complete physical examination • MINI diagnostic exam • Vital signs (respiratory rate, oral temperature (° C.), blood pressure, pulse). […] The capsules were taken for 7 days prior to the Baseline/Day 1 Visit (Visit 3). The first dose of placebo was taken at the clinic with 240 mL of water after a light meal. • Patients were provided with a diary to record the date, time and dosage of each dose.
(§2) Efficacy was determined by measuring the change from baseline in the Montgomery-Åsberg Depression Rating Scale (MADRS), the HAMD-17, the Clinical Global Impression Global Improvement Scale (CGI-I), the Clinical Global Impression-Severity scale (CGI-S) and the Derogatis Interview for Sexual Functioning Self-Report (DISF-SR). […] Comparisons between treatment groups based on MADRS (the primary efficacy parameter), HAMD-17, Anhedonia, DISF-SR, CGI-I and CGI-S scores were analyzed using a mixed-repeated measures (MMRM) analysis model including factors for Subject, Visit, Treatment Arm and Baseline value as a covariate. Adjusted least-squares means from these models are presented. Comparisons between groups were made at each post-baseline visit using model-based contrasts and adjusted degrees of freedom. For these analyses no explicit data imputations were made prior to the analysis. Response and remission categorical data were analyzed using chi-square tests. Inferential analyses of safety data were conducted with ANOVA models or chi-square tests. Two-tail alpha was set to 0.05. All analyses were conducted using SAS version 9.2.

[2] = tested on: patients with Major Depressive Disorder; assay: Six-week double-blind placebo-controlled Phase 2 study, efficacy; format: in vivo, human
From the text: Subjects were identified who were between the ages of 18-65 (inclusive), and met criteria for Major Depressive Disorder in accordance with the Diagnostic and Statistical manual of Mental Disorders-IV-TR and confirmed by the MINI International Neuropsychiatric Interview.
Subjects were required to refrain from taking antidepressants, anticonvulsants including gabapentin and pregabalin, neuroleptics, MAO inhibitors, barbiturates, benzodiazepines, stimulants, antipsychotics, lithium, anxiolytics and beta blockers starting two weeks prior to the study and continuing until after the follow-up visit.
as §1, §2

[3] = tested on: symptoms of depression; conditions: eight weeks of treatment; Sepracor Press Release, Jul. 1, 2009; cited from earlier work

## Clc1ccc([C@]23CNC[C@H]2C3)cc1Cl [(+)-1-(3,4-dichlorophenyl)-3-azabicyclo[3.1.0]hexane]
[1]; 10 patients, placebo 11 or 39.28%
  percentage of patients who reported an adverse treatment event: 30.30%
[1]; n = 33
  Treatment-Emergent Adverse Events: Abdominal Pain (NOS) (% of Patients): 2 (6.06%)
  Treatment-Emergent Adverse Events: Anxiety (% of Patients): 2 (6.06%)
  Treatment-Emergent Adverse Events: Diarrhea NOS (% of Patients): 2 (6.06%)
  Treatment-Emergent Adverse Events: Emotional Disturbance NOS (% of Patients): 2 (6.06%)
  Treatment-Emergent Adverse Events: Headache NOS (% of Patients): 3 (9.09%)
  Treatment-Emergent Adverse Events: Irritability (% of Patients): 2 (6.06%)
  Treatment-Emergent Adverse Events: Nausea (% of Patients): 2 (6.06%)
  Treatment-Emergent Adverse Events: Rash NOS (% of Patients): 2 (6.06%)
  Treatment-Emergent Adverse Events: Upper Respiratory Tract Infection NOS (% of Patients): 2 (6.06%)
[1]; same number in the placebo group
  patients who discontinued the study early due to AEs: Two
[1]; six-week study
  serious AEs: no serious AEs were reported
[2]; Visit 8, LOCF, Completers, 100 mg, 50% reduction or more of baseline total score, 8/20
  Response rate, MADRS: 40.00%
[2]; Visit 8, LOCF, Completers, 100 mg, 50% reduction or more of baseline total score, 11/20
  Response rate, HAMD-17: 55.00%
[2]; Visit 8, LOCF, Completers, 100 mg, HAMD-17 ≤ 7, 4/20
  Remission rate, HAMD-17: 20.00%
[2]; Visit 8, LOCF, Completers, 100 mg, MADRS ≤ 12, 6/20
  Remission rate, MADRS: 30.00%
[2]; Visit 8, MMRM, MITT, 95% CI (−0.21, 0.66), P = 0.306
  CGI-S LS mean, Difference placebo vs drug: 0.22
[2]; Week 6, MMRM
  overall statistical effect size (Cohen's d), MADRS total score vs placebo: −0.63

## N[C@@H]1CC[C@@H](c2ccc(Cl)c(Cl)c2)c2ccccc21 [SEP-225289]
[3]
  primary efficacy endpoint compared to placebo (reduction in symptoms of depression, 17-item HAM-D): did not meet the primary efficacy endpoint compared to placebo
